Reference: US9771361B2, “Inhibitors of influenza viruses replication” (priority 2013, dated 2017)

Columns and labels:
Type in all cases: cell-based, influenza A virus
Conditions in all cases: read-out: Cell Protection Assay EC50 ± SD Comp (1)
A/WS/33 = tested on: A/WS/33
A/NWS/33 = tested on: A/NWS/33
A/Puerto Rico/8/34 = tested on: A/Puerto Rico/8/34
A/Weiss/43 = tested on: A/Weiss/43
A/Georgia/20/2006 = tested on: A/Georgia/20/2006
A/St. Petersburg/8/2006 = tested on: A/St. Petersburg/8/2006
A/Virginia/01/2006 = tested on: A/Virginia/01/2006
[1] = tested on: A/California/07/2009 NYMC X-179A
A/Port Chalmers/1/73 = tested on: A/Port Chalmers/1/73
A/Wisconsin/67/2005 = tested on: A/Wisconsin/67/2005
A/Nebraska/1/2006 = tested on: A/Nebraska/1/2006
A/Texas/12/2007 = tested on: A/Texas/12/2007
A/Uruguay/716/2007 = tested on: A/Uruguay/716/2007
A/California/07/2009 = tested on: A/California/07/2009
A/Mexico/4108/2009 = tested on: A/Mexico/4108/2009
A/Texas/48/2009 = tested on: A/Texas/48/2009

## O=C(O)[C@H]1C2CCC(CC2)C1Nc1nc(-c2c[nH]c3ncc(F)cc23)ncc1F (stereo partly shown) [Compound (1)]
A/WS/33
  EC50: 3.2 ± 4.3 nM
A/NWS/33
  EC50: 0.73 ± 0.1 nM
A/Puerto Rico/8/34
  EC50: 3.2 ± 1.8 nM
A/Weiss/43
  EC50: 0.31 ± 0.23 nM
A/Georgia/20/2006
  EC50: 2.6 ± 3.8 nM
A/St. Petersburg/8/2006
  EC50: 0.88 ± 0.69 nM
A/Virginia/01/2006
  EC50: 0.42 ± 0.24 nM
[1]
  EC50: 2.7 ± 1.8 nM
A/Port Chalmers/1/73
  EC50: 0.54 ± 0.11 nM
A/Wisconsin/67/2005
  EC50: 1.8 ± 0.24 nM
A/Nebraska/1/2006
  EC50: 2.1 ± 1.3 nM
A/Texas/12/2007
  EC50: 0.65 ± 0.22 nM
A/Uruguay/716/2007
  EC50: 3.5 ± 5.1 nM
A/California/07/2009
  EC50: 1.8 ± 1.6 nM
A/Mexico/4108/2009
  EC50: 2.7 ± 1.8 nM
A/Texas/48/2009
  EC50: 2.8 ± 3.2 nM
